Source: the NIST ThermoML archive (doi:10.1016/j.fluid.2007.04.030)

Assay: xn = mol fraction of the nth substance listed
Conditions: 101 kPa, Liquid

COc1cc2c(cc1O)CC1c3c(cc(O)c(OC)c3-2)CCN1C (stereo not drawn) [boldine] + CCO
mass density [kg/m3]
Conditions	x1 = 0.00151	x1 = 0.0036	x1 = 0.00737	x1 = 0.01217	x1 = 0.0177	x1 = 0.02066	x1 = 0.02425	x1 = 0.02539
283.15 K	801.79	806.58	815.68	826.69	838.83	845.25	852.81	855.28
288.15 K	797.54	802.33	811.43	822.44	834.59	841.01	848.57	851.04
293.15 K	793.27	798.06	807.16	818.18	830.32	836.74	844.3	846.79
298.15 K	788.97	793.77	802.87	813.89	826.03	832.46	840.02	842.51
303.15 K	784.65	789.45	798.55	809.57	821.71	828.14	835.71	838.2
308.15 K	780.3	785.1	794.2	805.23	817.37	823.79	831.35	833.86
313.15 K	775.91	780.71	789.81	800.84	813	819.42	826.97	829.49
318.15 K	771.49	776.27	785.38	796.41	808.57	815	822.56	825.07
323.15 K	767.01	771.79	780.9	791.93	804.1	810.54	818.09	820.6
328.15 K	762.47	767.24	776.37	787.4	799.57	806.01	813.57	816.08
333.15 K	757.86	762.64	771.76	782.8	794.98	801.42	808.99	811.5
